Measurements reported in patent US8129402B2 (priority 2002, dated 2012).

Target: PrP^sc in ScN2a-22L cells (Mus musculus, UniProt P04925)
Type: cell-based
Conditions: ScN2a-22L cells, NIH Image J quantification

PrP^sc in ScN2a-22L cells, sequence (P04925 23-230 limits assumed): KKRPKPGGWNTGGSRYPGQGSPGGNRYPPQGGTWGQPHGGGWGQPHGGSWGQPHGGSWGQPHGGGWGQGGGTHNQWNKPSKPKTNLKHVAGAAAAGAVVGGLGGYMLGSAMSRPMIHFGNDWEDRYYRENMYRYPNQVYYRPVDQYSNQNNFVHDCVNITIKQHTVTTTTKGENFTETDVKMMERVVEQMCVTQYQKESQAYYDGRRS

With `CN(C)CCCN1c2ccccc2Sc2ccc(Cl)cc21` [chlorpromazine] as the compound, how does the “inhibition of the accumulation of PrPsc (resistant to proteinase K)” value read?
The value was 96%.
